In BindingDB's records for doi:10.1016/j.bmcl.2006.06.076 (Fujisawa Pharmaceutical, 2006):
pIC50: −log10 of the molar value.

What was measured:
[1] = Agonist activity at human PGI2 receptor assessed as inhibition of ADP-induced platelet aggregation
[2] = Agonist activity at rat PGI2 receptor assessed as inhibition of ADP-induced platelet aggregation

pIC50 [1]	pIC50 [2]	SMILES
6.94	–	O=C(O)COc1cccc(C[C@@H]2CCCC[C@@H]2c2nc(-c3ccccc3)c(-c3ccccc3)o2)c1 [sodium 2-(3-(((1S,2S)-2-(4,5-diphenyloxazol-2-yl)cyclohexyl)methyl)phenoxy)acetate]
7.24	< 5.00	O=C(O)COc1cccc(CN2CCC[C@H]2c2nc(-c3ccccc3)c(-c3ccccc3)o2)c1 [sodium (S)-2-(3-((2-(4,5-diphenyloxazol-2-yl)pyrrolidin-1-yl)methyl)phenoxy)acetate]
6.03	–	O=C(O)COc1cccc(Cc2ccccc2-c2nc(-c3ccccc3)c(-c3ccccc3)o2)c1 [sodium 2-(3-(2-(4,5-diphenyloxazol-2-yl)benzyl)phenoxy)acetate]
7.28	–	O=C(O)COc1cccc(C[C@@H]2CCC[C@@H]2c2nc(-c3ccccc3)c(-c3ccccc3)o2)c1 [sodium 2-(3-(((1S,2S)-2-(4,5-diphenyloxazol-2-yl)cyclopentyl)methyl)phenoxy)acetate]
7.41	–	O=C(O)COc1cccc(C[C@@H]2CCC[C@H]2c2nc(-c3ccccc3)c(-c3ccccc3)o2)c1 [sodium 2-(3-(((1S,2R)-2-(4,5-diphenyloxazol-2-yl)cyclopentyl)methyl)phenoxy)acetate]
6.94	–	O=C(O)COc1cccc(C[C@@H]2CCCC[C@H]2c2nc(-c3ccccc3)c(-c3ccccc3)o2)c1 [sodium 2-(3-(((1S,2R)-2-(4,5-diphenyloxazol-2-yl)cyclohexyl)methyl)phenoxy)acetate]
7.32	6.15	O=C(O)COc1cccc(CN2CCC[C@@H]2c2nc(-c3ccccc3)c(-c3ccccc3)o2)c1 [sodium (R)-2-(3-((2-(4,5-diphenyloxazol-2-yl)pyrrolidin-1-yl)methyl)phenoxy)acetate]
6.27	–	O=C(O)COc1cccc(CC2=C(c3nc(-c4ccccc4)c(-c4ccccc4)o3)CCCC2)c1 [sodium 2-(3-((2-(4,5-diphenyloxazol-2-yl)cyclohex-1-enyl)methyl)phenoxy)acetate]
7.22	5.92	O=C(O)COc1cccc(CC2CCCC=C2c2nc(-c3ccccc3)c(-c3ccccc3)o2)c1 [Sodium; {3-[(R)-2-(4,5-diphenyl-oxazol-2-yl)-cyclohex-2-enylmethyl]-phenoxy}-acetate]
